Where two headings read alike, the source gives them in different places.
Biological target: T1, human RXFP1 (Homo sapiens, UniProt Q9HBX9)
T1 construct: expressed in transfected cells
T1 sequence (Q9HBX9 1-757): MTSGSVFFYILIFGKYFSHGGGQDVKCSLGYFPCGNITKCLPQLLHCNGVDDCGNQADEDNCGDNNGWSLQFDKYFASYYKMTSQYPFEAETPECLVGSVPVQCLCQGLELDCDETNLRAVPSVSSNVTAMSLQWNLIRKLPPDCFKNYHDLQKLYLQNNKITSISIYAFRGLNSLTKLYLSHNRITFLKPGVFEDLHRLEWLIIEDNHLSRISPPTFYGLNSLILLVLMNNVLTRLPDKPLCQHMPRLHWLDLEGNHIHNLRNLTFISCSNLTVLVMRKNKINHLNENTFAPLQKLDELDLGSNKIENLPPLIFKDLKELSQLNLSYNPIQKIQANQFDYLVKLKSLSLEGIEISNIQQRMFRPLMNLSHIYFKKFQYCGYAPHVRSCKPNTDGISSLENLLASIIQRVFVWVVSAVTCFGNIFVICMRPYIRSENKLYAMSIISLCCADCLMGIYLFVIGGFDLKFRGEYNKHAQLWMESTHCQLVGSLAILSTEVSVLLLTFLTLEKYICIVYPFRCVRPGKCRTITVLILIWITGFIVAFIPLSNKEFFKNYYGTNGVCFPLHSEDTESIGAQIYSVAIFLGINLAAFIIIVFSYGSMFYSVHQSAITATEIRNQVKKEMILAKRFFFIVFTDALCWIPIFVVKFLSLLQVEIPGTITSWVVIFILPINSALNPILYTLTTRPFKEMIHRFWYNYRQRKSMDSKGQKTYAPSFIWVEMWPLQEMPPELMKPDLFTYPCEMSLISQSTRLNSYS
Assay: RXFP1 cAMP assay (hRXFP1 HEK293 cAMP assay, HTRF)
Type: cell-based
How it was run: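 Intracellular cAMP was read by HTRF, with potency fitted to a 4-parameter logistic curve. Compound exposure (0.010 nM–50 μM final, 2% DMSO) lasted 30 min at room temperature. Cells were hRXFP1-HEK293 at 1500 per well in IBMX-containing (0.5 mM) HEPES-buffered HBSS.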

[1] = HEK293 cells stably expressing human RXFP1, 30 min at room temperature, read-out: cAMP hRXFP1 HEK293 Assay EC50

| EC50 [1] [nM] | SMILES | EC50 (cAMP hRXFP1 HEK293 Assay EC50, HEK293 cells stably expressing human RXFP1, 30 min at room temperature) [nM] |
| --- | --- | --- |
| 5 | COc1ccc(-c2cc(C(O)C(=O)O)ccc2F)cc1C(=O)NC1C2CCC(/C2=C/C2CCC2)C1C(=O)Nc1ccc(F)c(C(F)(F)F)c1 (centres unmarked) [compound 356] |  |
| 360 | COc1ccc(C2CC3COCC32)cc1C(=O)N[C@H]1[C@@H](C(=O)Nc2ccc(F)c(C(F)(F)F)c2)[C@H]2CC[C@@H]1/C2=C\C1CC1 (stereo partly drawn) [Example 725, (1R,2S,3R,4R,Z)-3-(5-(3-oxabicyclo[3.2.0]heptan-6-yl)-2-methoxybenzamido)-7-(cyclopropylmethylene)-N-(4-fluoro-3-(trifluoromethyl)phenyl)bicyclo[2.2.1]heptane-2-carboxamide] |  |
| 7.8 | COc1ccc(C2=NOC3COCC23)cc1C(=O)N[C@H]1[C@@H](C(=O)N[C@H](C)C(C)(C)C)[C@H]2CC[C@@H]1/C2=C\C1CC1 (some centres unmarked) [compound 485] |  |
| 4 | COc1ccc(-c2cc(C3=NOC4CC(O)CC34)ccc2F)cc1C(=O)N[C@H]1[C@@H](C(=O)Nc2ccc(F)c(C(F)(F)F)c2)[C@H]2CC[C@@H]1/C2=C\C1CC1 (some centres unmarked) [compound 909] |  |
| 8.7 | COc1ccc(C2=NOC(C3(O)CC3)C2)cc1C(=O)N[C@H]1[C@@H](C(=O)Nc2ccc(F)c(C(F)(F)F)c2)[C@H]2CC[C@@H]1/C2=C\C1CC1 (single isomer, unassigned) [compound 491] |  |
| 1100 | CC(C)=C1C2CCC1[C@H](C(=O)Nc1ccc(F)c(C(F)(F)F)c1)[C@@H]2NC(=O)c1ccccc1OC(C)C (some centres unmarked) [compound 115] |  |
| 171 | COc1cc(C2CC2)c(C2=NOC3COCC23)cc1C(=O)N[C@H]1C(C(=O)Nc2ccc(F)c(C(F)(F)F)c2)[C@H]2CC[C@@H]1/C2=C\C1CC1 (single isomer, unassigned) [Example 626] |  |
| 966 | COc1cc(C(=O)N[C@H]2[C@@H](C(=O)Nc3ccc(F)c(C(F)(F)F)c3)[C@H]3CC[C@@H]2/C3=C\C2CC2)cc(C2=NOC3COCC23)c1 (single isomer, unassigned) [compound 696] |  |
| 4600 | COc1cc(F)c(F)cc1C(=O)N[C@@H]1C2CCC(/C2=C/C(=O)Nc2ccccc2)[C@@H]1C(=O)Nc1ccc(F)c(C(F)(F)F)c1 (some centres unmarked) [Example 34] |  |
| 15 | COC(=O)NC(C(=O)O)c1ccc(F)c(-c2ccc(OC)c(C(=O)N[C@@H]3C4CCC(/C4=C/C(F)(F)F)[C@@H]3C(=O)Nc3ccc(F)c(C(F)(F)F)c3)c2)c1 (some centres unmarked) [compound 185] |  |
| 40 | CNC(=O)c1ccc(F)c(-c2ccc(OC)c(C(=O)N[C@@H]3C4CCC(/C4=C/c4cnoc4)[C@@H]3C(=O)Nc3ccc(F)c(C(F)(F)F)c3)c2)c1 (some centres unmarked) [compound 165] |  |
| 135 | COc1ccc(-c2cc(C(=O)Nc3nnn[nH]3)ccc2F)cc1C(=O)N[C@@H]1C2CCC(/C2=C/c2cnoc2)[C@@H]1C(=O)Nc1ccc(F)c(C(F)(F)F)c1 (some centres unmarked) [Example 192] |  |
| 3.3 | COc1ccc(C2=NOC3CC(C)(CO)CC23)cc1C(=O)N[C@H]1[C@@H](C(=O)Nc2ccc(F)c(C(F)(F)F)c2)[C@H]2CC[C@@H]1/C2=C\C1CCCC1 (some centres unmarked) [compound 749] |  |
| 14 | COc1ccc(-c2cc(C(N[S+]([O-])C(C)(C)C)C(F)(F)F)ccc2F)cc1C(=O)N[C@H]1[C@@H](C(=O)Nc2ccc(F)c(C(F)(F)F)c2)[C@H]2CC[C@@H]1/C2=C\C1CC1 (stereo partly drawn) [Example 256, (1R,2S,3R,4R,Z)-3-(5′-(1-((tert-butylsulfinyl)amino)-2,2,2-trifluoroethyl)-2′-fluoro-4-methoxy-[1,1′-biphenyl]-3-carboxamido)-7-(cyclopropylmethylene)-N-(4-fluoro-3-(trifluoromethyl)phenyl)bicyclo[2.2.1]heptane-2-carboxamide] |  |
| 1 | COc1ccc(C2=NOC3COCC23)cc1C(=O)N[C@@H]1C2CCC(/C2=C/C2CCC2)[C@@H]1C(=O)Nc1ccc(F)c(C(F)(F)F)c1 (single isomer, unassigned) [Example 416] |  |
| 2.2 | COc1ccc(-c2cc(C(COC(=O)NC3CCC3)C(F)(F)F)ccc2F)cc1C(=O)N[C@H]1[C@@H](C(=O)Nc2ccc(F)c(C(F)(F)F)c2)[C@H]2CC[C@@H]1/C2=C\C1CCCC1 (some centres unmarked) [compound 893] |  |
| 15.2 | COc1ccc(C2=NOC3COCC23)cc1C(=O)N[C@H]1[C@@H](C(=O)N[C@H](C)c2ccccc2C(F)(F)F)[C@H]2CC[C@@H]1/C2=C\C1CC1 (some centres unmarked) [compound 510] |  |
| 285 | COc1ccc(C2=NOC3COCC23)cc1C(=O)N[C@H]1[C@@H](C(=O)NC2(Cc3ccccc3)CC2)[C@H]2CC[C@@H]1/C2=C\C1CC1 (some centres unmarked) [compound 653] |  |
| 2.4 | COc1ccc(-c2cc([C@H](O)C(F)(F)F)ccc2F)cc1C(=O)N[C@H]1[C@@H](C(=O)Nc2ccc(F)c(C(F)(F)F)c2)[C@H]2CC[C@@H]1/C2=C\C1CCCC1 [compound 920] |  |

| EC50 [1] [nM] | SMILES | EC50 (cAMP hRXFP1 HEK293 Assay EC50, HEK293 cells stably expressing human RXFP1, 30 min at room temperature) [nM] |
| --- | --- | --- |
| 3.1 | COc1ccc(C2=NO[C@H]3COC[C@@H]23)cc1C(=O)N[C@H]1[C@@H](C(=O)Nc2ccc(F)c(C(F)(F)F)c2)[C@H]2CC[C@@H]1/C2=C\C(C)C [compound 827] |  |
| 278 | CCC(NC(=O)[C@@H]1[C@H](NC(=O)c2cc(C3=NOC4COCC34)ccc2OC)[C@@H]2CC[C@H]1/C2=C/C1CC1)c1ccccc1C (single isomer, unassigned) [compound 652] |  |
| 15.3 | COc1ccc(C2=NOC3(C2)CC(CO)C3)cc1C(=O)N[C@H]1[C@@H](C(=O)Nc2ccc(F)c(C(F)(F)F)c2)[C@H]2CC[C@@H]1/C2=C\C1CC1 (some centres unmarked) [Example 511] |  |
| 2.2 | COc1ccc(C2=NO[C@H]3C[C@H](CO)CN23)cc1C(=O)N[C@H]1[C@@H](C(=O)Nc2ccc(F)c(C(F)(F)F)c2)[C@H]2CC[C@@H]1/C2=C\CCC(F)(F)F [compound 818] |  |
| 50.7 | COc1ccc(C2=NOC3COCC23)cc1C(=O)N[C@H]1[C@@H](C(=O)NC2CCCC2)[C@H]2CC[C@@H]1/C2=C\C1CC1 (some centres unmarked) [Example 565] |  |
| 207 | COc1ccc([C@H]2CO[C@@H]3[C@H]2OC[C@H]3O)cc1C(=O)N[C@H]1[C@@H](C(=O)Nc2ccc(F)c(C(F)(F)F)c2)[C@H]2CC[C@@H]1/C2=C\C1CC1 [compound 638] |  |
| 410 | COc1ccc(C2=NOC3CS(=O)(=O)CC23)cc1C(=O)N[C@@H]1C2CCC(/C2=C/C2CC2)[C@@H]1C(=O)Nc1ccc(F)c(C(F)(F)F)c1 (single isomer, unassigned) [compound 444] |  |
| 1.6 | COc1ccc(C2CCN(C(=O)C(C)(C)O)C2)cc1C(=O)N[C@H]1[C@@H](C(=O)Nc2ccc(F)c(C(F)(F)F)c2)[C@H]2CC[C@@H]1/C2=C\C1CC1 (single isomer, unassigned) [Example 449] |  |
| 49 | COc1ccc(C2=NOC3CN(C(=O)OC(C)(C)C)CC23)cc1C(=O)N[C@@H]1C2CCC(/C2=C/C2CC2)[C@@H]1C(=O)Nc1ccc(F)c(C(F)(F)F)c1 (some centres unmarked) [compound 435] |  |
| 191 | COc1ccc(C2=NOC3COCC23)cc1C(=O)N[C@H]1[C@@H](C(=O)NC2CCC2)[C@H]2CC[C@@H]1/C2=C\C1CC1 (some centres unmarked) [compound 635] |  |
| 3 | COc1ccc(-c2cc(S(C)(=O)=O)ccc2F)cc1C(=O)N[C@H]1[C@@H](C(=O)Nc2ccc(F)c(C(F)(F)F)c2)[C@H]2CC[C@@H]1/C2=C\C1CC1 [compound 899] |  |
| 486 | CC[C@H](NC(=O)[C@@H]1[C@H](NC(=O)c2cc(C3=NOC4COCC34)ccc2OC)[C@@H]2CC[C@H]1/C2=C/C1CC1)C1CCC1 (some centres unmarked) [compound 676] |  |
| 3 | COc1ccc(C2=NO[C@H]3C[C@H](CO)C[C@@H]23)cc1C(=O)N[C@H]1[C@@H](C(=O)Nc2ccc(F)c(C(F)(F)F)c2)[C@H]2CC[C@@H]1/C2=C\CC(O)C(F)(F)F (some centres unmarked) [compound 826] |  |
| 26 | COc1ccc(-c2cc(C(OC(=O)NC3CCC3)C(F)(F)F)ccc2F)cc1C(=O)N[C@@H]1C2CCC(/C2=C/C2CC2)[C@@H]1C(=O)Nc1ccc(F)c(C(F)(F)F)c1 (some centres unmarked) [compound 221] |  |
|  | COc1cc(F)c(F)cc1C(=O)N[C@@H]1C2CCC(/C2=C/c2c(Cl)cccc2Cl)[C@@H]1C(=O)Nc1ccc(F)c(C(F)(F)F)c1 (some centres unmarked) [compound 69] | 3700 |
| 127 | CCCC/C=C1\C2CCC1[C@H](C(=O)Nc1ccc(F)c(C(F)(F)F)c1)[C@@H]2NC(=O)c1cc(C2=NOC(CO)C2)ccc1OC (some centres unmarked) [compound 383] |  |
| 7.4 | COc1ccc(C2=NO[C@@H]3CC[C@H](O)[C@H]23)cc1C(=O)N[C@H]1[C@@H](C(=O)Nc2ccc(F)c(C(F)(F)F)c2)[C@H]2CC[C@@H]1/C2=C\C1CC1 (single isomer, unassigned) [compound 484] |  |
| 0.4 | COc1ccc(-c2cc([C@H](OC(=O)NC3CC3)C(F)(F)F)ccc2F)cc1C(=O)N[C@H]1[C@@H](C(=O)Nc2ccc(F)c(C(F)(F)F)c2)[C@H]2CC[C@@H]1/C2=C\C1CCCC1 [compound 927] |  |
| 20 | COc1ccc(-c2ccc(CC(=O)O)cc2)cc1C(=O)N[C@@H]1C2CCC(/C2=C/c2cnoc2)[C@@H]1C(=O)Nc1ccc(F)c(C(F)(F)F)c1 (some centres unmarked) [compound 188] |  |
